Here are results for 1 molecule from patent US11299485B2, “Thiophene derivative and use thereof” (FUJIMOTO CO., LTD., priority 2018, dated 2022).

Common to all, as to type: cell-based
In assay [1] the test system is MM.1S cells. Kind of assay: Human myeloma cell line MM.1S proliferation suppression test. The note with it: MM1.S, 72 h, compound 10 μM, 3 days, WST-1 or WST-8, read-out: cell survival rate (% of control) MM.1S. The procedure: Example 51: Human Myeloma Cell Line MM.1S Proliferation Suppression Test
MM.1S cells (ATCC, CRL-2974) were suspended in 10% fetal calf serum (Thermo Fisher Scientific)-containing RPMI1640 medium (ATCC, hereinafter abbreviated as medium B), and diluted as appropriate with 0.4% trypan blue solution (Sigma-Aldrich Co. LLC.). The number of viable cells was counted with a hemocytometer (ERMA INC.). It was diluted with medium B such that the value obtained was 2×10^5 cells/mL. On the other hand, 50 μL of a solution obtained by diluting 4 mM DMSO solution of the test compound 200-fold with medium B was added to each well of a Falcon 96-well flat bottom plate (Corning Incorporated), and the above-mentioned cell suspension was dispensed at 50 μL/well (final concentration of test compound 10 μM). 50 μL of a solution obtained by diluting DMSO 200-fold with medium B was added to the control well. After culturing at 37° C. in a 5% CO2 stream for 3 days, the cell proliferation activity was measured using WST-1 (DOJINDO LABORATORIES) or WST-8 Kit (KISHIDA CHEMICAL Co., Ltd.) and according to each instruction manual attached thereto.

Assay [2] has as its system Pfeiffer cells. Kind of assay: Human diffuse large B-cell lymphoma cell line Pfeiffer proliferation suppression test. The note with it: 144 h, compound 10 μM, 3 days + re-plating with compound 3 days, WST-8, read-out: cell survival rate (% of control) Pfeiffer. The text has this:
Example 52: Human Diffuse Large B-Cell Lymphoma Cell Line Pfeiffer Proliferation Suppression Test
(§1) Pfeiffer cells (ATCC, CRL-2632) were suspended in medium B, and diluted as appropriate with 0.4% trypan blue solution (Sigma-Aldrich Co. LLC.). The number of viable cells was counted with a hemocytometer (Funakoshi Co., Ltd.). A cell suspension obtained by diluting with medium B such that the value obtained was 1.3×10^5 cells/mL was dispensed into a Falcon 96 well flat bottom plate (Corning Incorporated) at 75 μL/well, and culture was started at 37° C. under 5% CO2 stream. The next day, a solution obtained by diluting 4 mM DMSO solution of the test compound 100-fold with medium B was added by 25 μL to each well (final concentration of test compound 10 μM). 25 μL of a solution obtained by diluting DMSO 100-fold with medium B was added to the control well. After culturing at 37° C. in a 5% CO2 stream for 3 days, the cell culture medium was uniformly suspended with a multi channel pipette, 14 μL per well was transferred into another new Falcon 96 well flat bottom plate. A solution obtained by diluting 4 mM DMSO solution of the same test compound as the first time 400-fold with medium B was added by 86 μL to a total amount of 100 μL (final concentration of test compound 10 μM). After culturing at 37° C. in a 5% CO2 stream for 3 days, the cell proliferation activity was measured according to the instruction manual attached to WST-8 Kit (KISHIDA CHEMICAL Co., Ltd.).

The subject of assay [3] is REC-1 cells. Kind of assay: Human mantle cell lymphoma cell line REC-1 proliferation suppression test. Particulars: Rec1, 72 h, compound 10 μM, 3 days, WST-8, read-out: cell survival rate (% of control) REC-1. The procedure: Example 53: Human Mantle Cell Lymphoma Cell Line REC-1 Proliferation Suppression Test
as §1, with “REC-1” for “Pfeiffer”, “CRL-3004)” for “CRL-2632)”, “cell” for “cell culture medium was uniformly suspended with a multi channel pipette, 14 μL per well was transferred into another new Falcon 96 well flat bottom plate. A solution obtained by diluting 4 mM DMSO solution of the same test compound as the first time 400-fold with medium B was added by 86 μL to a total amount of 100 μL (final concentration of test compound 10 μM). After culturing at 37° C. in a 5% CO2 stream for 3 days, the cell”
(Formazan colour is commonly taken as a measure of viable cells.)

Assay [4] deals with Daudi cells. Kind of assay: Human Burkitt lymphoma cell line Daudi proliferation suppression test. Particulars: 72 h, compound 10 μM, 3 days, WST-8, read-out: cell survival rate (% of control) Daudi. The text has this: Example 54: Human Burkitt Lymphoma Cell Line Daudi Proliferation Suppression Test
Daudi cells (National Institutes of Biomedical Innovation, Health and Nutrition (NIBIOHN), JCRB9071) were suspended in medium B, and diluted as appropriate with 0.4% trypan blue solution (Sigma-Aldrich Co. LLC.). The number of viable cells was counted with a hemocytometer (ERMA INC.). A cell suspension obtained by diluting with medium B such that the value obtained was 1.3×10^5 cells/mL was dispensed into a Falcon 96 well flat bottom plate (Corning Incorporated) at 75 μL/well, and culture was started at 37° C. under 5% CO2 stream. The next day, a solution obtained by diluting 4 mM DMSO solution of the test compound 100-fold with medium B was added by 25 μL to each well (final concentration of test compound 10 μM). 25 μL of a solution obtained by diluting DMSO 100-fold with medium B was added to the control well. After culturing at 37° C. in a 5% CO2 stream for 3 days, the cell proliferation activity was measured according to the instruction manual attached to WST-8 Kit (KISHIDA CHEMICAL Co., Ltd.).

The subject of assay [5] is Kasumi-7 cells. In words: Human acute lymphoblastic leukemia cell line Kasumi-7 proliferation suppression test. Particulars: 72 h, compound 10 μM, 3 days, WST-8, read-out: cell survival rate (% of control) Kasumi-7. The text has this:
Example 55: Human Acute Lymphoblastic Leukemia Cell Line Kasumi-7 Proliferation Suppression Test
Kasumi-7 cells (NIBIOHN, JCRB1401) were suspended in 20% fetal calf serum (Thermo Fisher Scientific, Inc.)-containing RPMI1640 medium (ATCC, hereinafter abbreviated as medium C), and diluted as appropriate with 0.4% trypan blue solution (Sigma-Aldrich Co. LLC.). The number of viable cells was counted with a hemocytometer (Funakoshi Co., Ltd.). A cell suspension obtained by diluting with medium C such that the value obtained was 1.3×10^5 cells/mL was dispensed into a Falcon 96 well flat bottom plate (Corning Incorporated) at 75 μL/well, and culture was started at 37° C. under 5% CO2 stream. The next day, a solution obtained by diluting 4 mM DMSO solution of the test compound 100-fold with medium C was added by 25 μL to each well (final concentration of test compound 10 μM). 25 μL of a solution obtained by diluting DMSO 100-fold with medium C was added to the control well. After culturing at 37° C. in a 5% CO2 stream for 3 days, the cell proliferation activity was measured according to the instruction manual attached to WST-8 Kit (KISHIDA CHEMICAL Co., Ltd.).

Consider `O=C1CCC(N2C(=O)c3ccccc3C2=O)C(=O)N1` (centres unmarked) [Thalidomide, reference compound], for which the viability at 10 µM in assay [1] turned out to be 79%; in assay [2], 104%; in assay [3], 94%; in assay [4] it was 81%; in assay [5], 96%.
